The assay deals with Swiss Albino or CD-1 male mice. In words: Acetic acid writhing (AAW) analgesic assay. It counts as in vivo, mouse. Conditions: for inhibition in vivo at 30 mg/kg: Mus musculus, 20 min, read-out: AAW % Efficacy. The method, then: Approaches for evaluating analgesic activity of a compound of the present invention in vivo include a “writhing test.” Briefly, the compound to be tested is administered [by, for example, injection (e.g., subcutaneous injection)] to the mouse. Thereafter, a 0.5% acetic acid solution is administered (i.p.) to a mouse and the numbers of writhing responses are counted for twenty minutes. Antinociception is quantified as reduction in the number of writhes respective to vehicle.
An analgesic assay was used to determine whether a given compound can reduce and/or prevent visceral pain in mice. The assay utilizes Swiss Albino or CD-1 male mice (5-10 mice per group), each mouse being approximately 0.015-0.030 kg on the study day. Mice were treated according to standard protocols.
The animal was given an intraperitoneal (IP) injection of an irritant (acetic acid) that induces “writhing” which may include: contractions of the abdomen, twisting and turning of the trunk, arching of the back and the extension of the hindlimbs. Mice are given a single IP injection (0.1 mL/10 g bodyweight) of a 0.5% acetic acid solution. After the injection the animals were returned to their observation enclosure and their behavior was observed. Contractions were counted between 0 and 20 minutes after the injection. The animals were used once. In certain instances, the test articles were administered at multiple doses to determine a dose response curve.
Table 4 provides the results for certain compounds of the present invention that were administered subcutaneously. Table 5 provides the results for certain compounds of the present invention that were administered orally.

Where two headings read alike, the source gives them in different places.

As for `COCCOCCOCCOCCOCCOc1cccc(Nc2ccc3c(c2)[C@]2(C)CCN(CC4CC4)[C@H](C3=O)[C@@H]2C)c1` [Compound 8, (2S,6R,11R)-8-((3-(2,5,8,11,14-pentaoxahexadecan-16-yloxy)phenyl)amino)-3-(cyclopropylmethyl)-6,11-dimethyl-3,4,5,6-tetrahydro-2,6-methanobenzo[d]azocin-1(2H)-one], for the setting “subcutaneous, 30 mg/kg”, the “AAW % Efficacy” value was 100.0%.
`COCCOCCOCCOCCOCCNc1cccc(Nc2ccc3c(c2)[C@]2(C)CCN(CC4CC4)[C@H](C3=O)[C@@H]2C)c1` [Compound 11, (2S,6R,11R)-8-((3-(2,5,8,11,14-pentaoxahexadecan-16-ylamino)phenyl)amino)-3-(cyclopropylmethyl)-6,11-dimethyl-3,4,5,6-tetrahydro-2,6-methanobenzo[d]azocin-1(2H)-one]: the inhibition in vivo at 30 mg/kg (sc, subcutaneous) came to 100%.
Take `C[C@H]1[C@H]2C(=O)c3ccc(Nc4ccc(NCCOCCOCCOCCOCCOC(F)(F)F)cc4)cc3[C@]1(C)CCN2CC1CC1` [Compound 20, (2S,6R,11R)-3-(cyclopropylmethyl)-6,11-dimethyl-8-((4-((1,1,1-trifluoro-2,5,8,11,14-pentaoxahexadecan-16-yl)amino)phenyl)amino)-3,4,5,6-tetrahydro-2,6-methanobenzo[d]azocin-1(2H)-one]: the inhibition in vivo at 30 mg/kg (oral) is 100%.

Source of the values: US10865186B2, “Opioid agonists and uses thereof” (Nektar Therapeutics, priority 2013, dated 2020).
